Experimental data from patent US10420768B2, “Pyrrolopyrimidine derivatives as NR2B NMDA receptor antagonists” (Rugen Holdings (Cayman) Limited, priority 2014, dated 2019).

Key:
rats [1] = experiment: Haloperidol-induced catalepsy (HIC) model; type: in vivo, rat; conditions: positive control 8 mg/kg
rats [2] = experiment: Electroconvulsive threshold (ECT) test; type: in vivo, rat
mice (strain NLMN) = experiment: Forced swim test; type: in vivo, mouse; conditions: positive control 32 mg/kg IP

## CC(N)Cc1ccccc1 (stereo not shown) [amphetamine]
Rats [1]
  anticataleptic activity (catalepsy score): showed the expected robust anticataleptic activity

## CN1C(=O)CN=C(c2ccccc2)c2cc(Cl)ccc21 [diazepam]
Rats [2]; positive control 16 mg/kg p.o.
  anticonvulsant activity (electroconvulsive threshold): showed the expected pro- and anticonvulsant activities

## CN(C)CCCN1c2ccccc2CCc2ccccc21 [imipramine]
Mice (strain NLMN)
  antidepressant activity (immobility time): showed the expected antidepressant activity

## Cn1c(=O)c2[nH]cnc2n(C)c1=O [theophylline, Theophylline]
Rats [2]; positive control 128 mg/kg p.o.
  proconvulsant activity (electroconvulsive threshold): showed the expected pro- and anticonvulsant activities
